Assay results taken from PubChem BioAssay (NCI).
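Each compound was tested at five concentrations against cells in 96-well plates for 48 hours. TGI denotes the concentration required for complete inhibition of growth.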

Tests used:
Experiment in all cases: inhibition of tumour cell growth, NCI panel, 48 h
A498 renal = system: A498 renal
ACHN renal = system: ACHN renal
BT-549 breast = system: BT-549 breast
CAKI-1 renal = system: CAKI-1 renal
EKVX NSCLC = system: EKVX NSCLC
HCC-2998 colon = system: HCC-2998 colon
HCT-15 colon = system: HCT-15 colon
K-562 leukemia = system: K-562 leukemia
KM12 colon = system: KM12 colon
MALME-3M melanoma = system: MALME-3M melanoma
MCF7 breast = system: MCF7 breast
MDA-MB-231 breast = system: MDA-MB-231 breast
MDA-MB-435 = system: MDA-MB-435
MOLT-4 leukemia = system: MOLT-4 leukemia
SF-268 CNS = system: SF-268 CNS
SK-MEL-2 melanoma = system: SK-MEL-2 melanoma
SK-OV-3 ovarian = system: SK-OV-3 ovarian
TK-10 renal = system: TK-10 renal
U251 CNS = system: U251 CNS

| SMILES | TGI (A498 renal) | TGI (ACHN renal) | TGI (BT-549 breast) | TGI (CAKI-1 renal) | TGI (EKVX NSCLC) | TGI (HCC-2998 colon) | TGI (HCT-15 colon) | TGI (K-562 leukemia) | TGI (KM12 colon) | TGI (MALME-3M melanoma) | TGI (MCF7 breast) | TGI (MDA-MB-231 breast) | TGI (MDA-MB-435) | TGI (MOLT-4 leukemia) | TGI (SF-268 CNS) | TGI (SK-MEL-2 melanoma) | TGI (SK-OV-3 ovarian) | TGI (TK-10 renal) | TGI (U251 CNS) |
| --- | --- | --- | --- | --- | --- | --- | --- | --- | --- | --- | --- | --- | --- | --- | --- | --- | --- | --- | --- |
| N[C@@H]1c2c(Br)sc(Br)c2C(=O)[C@H]1Br | > 69.9 µM | 43.8 µM | 43.1 µM | 66.4 µM | > 88 µM | > 76.1 µM | 60.8 µM | > 67 µM | > 61.5 µM | 57.4 µM | > 100 µM | 48.5 µM | > 61 µM | > 46.1 µM | > 100 µM | > 100 µM | > 100 µM | > 100 µM | 60.1 µM |
| COc1cc2c(OC)c3cc(C)oc(=O)c3c(O)c2c(O)c1-c1c(OC)cc2c(OC)c3cc(C)oc(=O)c3c(O)c2c1O | 51 µM | 33.3 µM | 68.5 µM | 47 µM | 62.3 µM | 33.5 µM | 39.4 µM | 34.3 µM | 40.4 µM | 37.2 µM | 51.1 µM | 36.6 µM | 33.9 µM | 31.8 µM | 42.6 µM | 35.8 µM | > 100 µM | 66.8 µM | 31.7 µM |
| C/C(=N/NC(=S)Nc1ccccc1C)c1ccccn1 | 12.3 µM | 10.3 µM | 16 µM | 19.5 µM | 6.46 µM | 26 µM | 18.3 µM | 3.4 µM | 17.4 µM | 15.9 µM | 12.8 µM | 14.9 µM | 15.5 µM | 2.08 µM | 30.9 µM | 12.8 µM | 14.8 µM | 4.27 µM | 18.1 µM |
| Oc1c(Nc2ccccc2)cc2c3c1N=NC=3CCN=2 | > 100 µM | > 100 µM | > 100 µM | > 100 µM | > 100 µM | > 100 µM | > 100 µM | > 100 µM | > 100 µM | 29.1 µM | 69 µM | > 100 µM | 31 µM | 87.3 µM | > 100 µM | > 100 µM | > 100 µM | > 100 µM | > 100 µM |
| CCCCCCCCOP(=O)(O)OP(=O)(O)OCC1OC(n2ccc(N)nc2=O)C(O)C1O (centres undefined) | > 100 µM | > 100 µM | > 100 µM | > 100 µM | > 100 µM | > 100 µM | > 100 µM | > 100 µM | > 100 µM | > 100 µM | > 100 µM | > 100 µM | > 100 µM | > 100 µM | > 100 µM | > 100 µM | > 100 µM | > 100 µM | > 100 µM |
| CCOC(=O)C(=O)N=Nc1c(O)[nH]c2ccccc12 | > 100 µM | > 100 µM | > 100 µM | > 100 µM | > 100 µM | > 100 µM | > 100 µM | > 100 µM | > 100 µM | > 100 µM | > 100 µM | > 100 µM | > 100 µM | > 100 µM | > 100 µM | > 100 µM | > 100 µM | > 100 µM | > 100 µM |
